Experimental findings from patent US7935685B2, “Process for preparation of inclusion compounds between a non-steroidal anti-inflammatory drug and betacyclodextrin by microwave treatment” (Chiesi Farmaceutici S.p.A., priority 2001, dated 2011) are described below.

The data set in a line: Dissolution rate of piroxicam from the solid phases, dispersed amount method (USP 25, NF 20). It is filed as physicochemical. The conditions noted are these: 1 L distilled water, 37° C., paddle 50 rpm. As for the experimental part: The dissolution rate of the samples under study was determined by the dispersed amount method according to the USP 25, NF 20, 2002. The test samples were introduced into vessels containing 1 L of distilled water each.
The test was conducted by maintaining the temperature of the dissolving bath at 37° C. and regulating the paddle rotation speed to 50 rpm.
The concentration of the drug in solution was determined at 2-minute intervals by spectrophotometry.
Each sample was analysed in triplicate.

Regarding `CN1C(C(=O)Nc2ccccn2)=C(O)c2ccccc2S1(=O)=O` [PRX, piroxicam], the “% DISS (percentage compared with the initial dose of PRX in the sample)” value by setting is: (T 0 min) 0%; (T 2 min) 0.052%; (T 4 min) 0.245%; (T 6 min) 0.451%; (T 8 min) 0.619%; (T 10 min) 0.851%. In addition, the “% DISS (percentage compared with the initial dose of PRX in the sample)” value amounted to 2.051% (T 20 min); 3.340% (T 30 min); 4.694% (T 40 min); 6.087% (T 50 min); 7.635% (T 60 min).
